Legend:
[1] = tested on: CAD mouse neuronal cells; test: Neurotoxicity assay, CAD mouse neuronal cells with or without microglia; type: cell-based
Method: For assessment of microglia-induced neurotoxicity, CAD mouse neuronal cells^47 were seeded on poly-L-lysine coated glass cover slips and grown in F12/DMEM supplemented with ciprofloxacin (Cellgro, Manassas, Va.) and 10% fetal calf serum (Hyclone, Logan, Utah) for 24 h. Differentiation was induced by withdrawal of serum for 48 h Immortalized microglia from wildtype or caspase-1^−/− mice were added in serum free medium to obtain mixed neuronal/microglial cultures and immediately stimulated. 72 h after stimulation with Aβ or media, cells were fixed, stained for the neuron-specific marker TuJ-1 and microglial marker CD11b, and imaged by confocal microscopy (Leica SP2 AOBS). Caspase-1 activity in microglial cells was assessed using the caspase-1 FLICA™ kit (Immunochemistry Technologies, Bloomington, Minn.) according to the manufacturer's instructions.

[2] = tested on: mouse microglia; test: IL-1β release from LPS-primed mouse microglia (ELISA); type: cell-based; conditions: LPS-primed primary and immortalized mouse microglia, 10 μM
Method: For primary cultures, bone marrow-derived macrophages and microglia were isolated as described^42,43 and cultured in DMEM supplemented with L-glutamine, ciprofloxacin (Cellgro, Manassas, Va.) and 10% fetal calf serum (Hyclone, Logan, Utah) Immortalized macrophage and microglial cell lines were generated using J2 recombinant retrovirus (carrying v-myc and v-raf oncogenes)^44,45. Briefly, primary bone marrow cells were incubated in L929 conditioned medium for 3-4 days to induce macrophage differentiation. Cells were then infected with J2 recombinant retrovirus and maintained in culture until cells were growing in the absence of conditioned medium. Similarly, primary mixed glial cultures were cultured until fully confluent. After two consecutive infections with J2 retrovirus, cells were maintained in normal medium until growth of microglial cells in colonies was observed. The semi-adherent colonies of microglial cells were washed off and cultured in new flasks. […] Microglial cell lines form wild type (C57/BL6), Caspase-1^−/− and IL-IR^−/− mice as well as macrophage cell lines from wild type (C57BL6), NALP3 -, IPAF- and ASC-deficient mice were generated and used for experiments as indicated.
(§1) Stimulations were carried out in serum free DMEM medium. Microglial cells and macrophages were primed with 100 U/ml IFNγ (Griess assay, TNF ELISA, real-time quantitative PCR) or 100 ng/ml ultrapure LPS (IL-1β ELISA, FLICA, ASC-CFP microglia cell line assay, Western blot) 1-3 h prior to stimulation with Aβ, revAβ, zymosan, ATP or transfection with dAdT.
Cell culture supernatants were assayed for IL-1β and TNFα using ELISA kits from R&D Systems (Minneapolis, Minn.) according to the manufacturer's instructions. Nitric oxide was measured by Griess reaction of nitrites accumulated in the supernatants using chemicals from Sigma.

[3] = tested on: mouse macrophages; test: IL-1β release from LPS-primed mouse macrophages (bone marrow-derived, B6-MCLs), ELISA; type: cell-based; conditions: LPS-primed bone marrow-derived macrophages of wild type mice, Aβ 1, 5 and 10 μM
Method: Bone marrow derived macrophages were generated as described (Severa, M et al. Journal of Biological Chemistry 281:26188-26195 (2006)). Human PBMCs were isolated by from whole blood of healthy volunteers by density gradient centrifugation. Lysis of red blood cells was performed using red blood cell lysis buffer (Sigma). Experiments in PBMCs and macrophages were carried out at a cell density of 2×10^6 cells/ml. All primary cells and cell lines except THP-1 cells were cultured in DMEM supplemented with L-glutamine, ciprofloxacin (Cellgro, Manassas, Va.) and 10% fetal calf serum (Hyclone, Logan, Utah). THP-1 cells were cultured in RPMI supplemented with 10% fetal calf serum (Hyclone), L-glutamine, sodium pyruvate (Cellgro), and ciprofloxacin. One day prior to stimulation, THP-1 cells were differentiated using 0.5 μM PMA for three hours, washed three times and plated for stimulation. All experiments that were performed for Western blot analysis were carried out in serum free DMEM medium. ATP stimulations were carried out at 5 mM one hour prior to harvesting supernatants.
Immortalized macrophage cell lines were generated using the previously described J2 recombinant retrovirus (carrying v-myc and v-raf/mil oncogenes) (Roberson, S. M. & Walker, W. S. Cellular immunology 116:341-351 (1988)). Briefly, primary bone marrow cells were incubated in L929 conditioned medium for 3-4 days to induce macrophage differentiation. Subsequently, cells were infected with J2 recombinant retrovirus. Cells were maintained in culture for 3-6 months slowly weaning off the percentage of L929 supernatant until cells were growing in the absence of conditioned medium.
Macrophage phenotype was verified by surface marker expression for CD11b and F480 as well as a range of functional parameters, including responsiveness to TLR ligands and bacterial uptake. Macrophage cell lines from wild-type (C57BL6), NALP3- and ASC-deficient mice were generated and are referred to as B6-MCLs, NALP3 -MCLs and ASC-MCLs.
Cell culture supernatants were assayed for IL-1β using ELISA kits from BD Biosciences (Franklin Lakes, NJ) according to the manufacturer's instructions. To measure intracellular IL-1β, cells were washed and subjected to three freeze thaw cycles in assay diluent.
as §1

[4] = tested on: ASC; test: ASC-CFP microglia cell line, ASC clustering; type: cell-based, mouse; conditions: LPS-primed ASC-CFP microglia, 3 h after stimulation
Excerpt: Human ASC was fused to CFP using BgIII/BamHI in pEF-BOS-CFP. Subsequently, ASC-CFP was cloned using XhoI and NotI into a modified form of FUGW (FUGW-XN). FUGW-XN was modified by replacing GFP with a novel cut site that created XhoI and NotI compatible ends upon Esp3I digestion.
Lentivirus was produced in 293T cells transfected with the FUGW based expression vector coding for ASC-CFP, lentiviral packaging plasmid containing gag, pol and rev genes (pCMV-dR8.91) and envelope plasmid (VSV-G) using TransIT-LT1 transfection reagent (Minis Bio, MIR 2300/5/6) as previously described^46. One day after transfection, medium was replaced and after one additional day of culture supernatants containing the lentivirus was removed, filtered and used to infect immortalized microglia cells.
For experiments, ASC-CFP microglial cells were seeded in duplicate into confocal dishes, stimulated as indicated. A647-labeled cholera toxin subunit B (1:1000) was added to stain cellular membranes. Cells were subsequently imaged using confocal microscopy (Leica SP2 AOBS). Cells were fixed and 5 random fields were imaged in duplicate for quantification.
First, we stably transduced microglial cell cultures with a fusion protein of ASC and cyan fluorescent protein (CFP). ASC forms large oligomers upon its activation, leading to visible changes in the cytoplasmic fluorescence pattern of ASC-CFP. […]

Question: For Aβ 1-42 peptide, which neuronal cell death ([1]; mixed neuronal/microglial cultures with wild type microglia, Aβ 10 μM, 72 h) is on record?
Answer: widespread neuronal cell death

Question: What about the “effects on neuronal cells” value ([1]; neuronal mono-culture) of the same substance?
Answer: only minimal morphological and quantitative effects

Question: And the “IL-1β release into supernatants induced by the peptide” value [2]?
Answer: time-dependent release of IL-1β

Question: And the “IL-1β release into supernatants induced by the peptide” value ([2]; listed as fibrillar Aβ)?
Answer: early and pronounced IL-1β release

Question: And the “IL-1β release induced by Aβ” value [3]?
Answer: strong and dose-dependent IL-1β release

Question: What about the “formation of fluorescent ASC-CFP clusters” value [4] of the same substance?
Answer: brightly fluorescent clusters of ASC-CFP formed

From patent US20100150938A1, “METHODS AND COMPOSITIONS FOR REDUCING INFLAMMATION AND TREATING INFLAMMATORY DISORDERS” (UNIVERSITY OF MASSACHUSETTS, priority 2008, published 2010)
